Data published in PMC12649575, “Assessment of Polymyxin B with Sodium Deoxycholate Sulfate Micelles in a Rat Model to Combat Polymyxin Nephrotoxicity” (Antibiotics, 2025).

Columns and labels:
[1] = cited from earlier work
Description: Nephrotoxicity remains a significant challenge for PMB. The prevalence of nephrotoxicity ranges from 10% to 60% despite the effectiveness of PMB in treating multidrug-resistant Gram-negative bacterial infections. The amphipathic properties of polymyxins are also responsible for their nephrotoxicity where the cationic diaminobutyric acid (Dab) residues of PMB interact with anionic phospholipids (e.g., phosphatidylinositol, cardiolipin) on the membranes of renal tubular cells. This electrostatic interaction, combined with the insertion of the lipophilic tail into the lipid bilayer, dis ... || PMB undergoes extensive reabsorption in the renal tubule, and a very high concentration of PMB is found in human renal tubular cells compared to the extracellular concentration. The increased accumulation of PMB leads to cell swelling and lysis by disrupting the permeability of the renal tubular epithelial cell membrane. In our results, the administration of the PMB formulation increased the serum concentration profile of PMB.

[2] = system: rat kidney, liver, lung and spleen tissue; experiment: Histopathological examination (H&E) of kidney, liver, lung and spleen; assay type: in vivo; conditions: 7 days of 6 mg/kg/day s.c., result in words
Method: An H&E assay was performed on the collected tissues of all animals to evaluate PMB-induced nephrotoxicity and organ damage. The kidney histopathological results from the H&E assay of the renal cortex and medulla in the treated animals are shown in Figure 3.
Liver histopathological alterations in the central vein area and portal triad area of the treated rats are shown in Figure 4A and Figure 4B, respectively.
Histopathological alterations in the spleen tissue of the treated animals were also examined (Figure 4D).
(§1) The nephrotoxicity experiment of the PMB formulation was performed on 36 male rats that were randomly divided into four groups (n = 9). Randomization was performed using computer-generated random sequences in Microsoft Excel with a fixed seed value to ensure reproducibility. Block randomization was used to balance the number of animals per group. […] The PMB dose of 6 mg/kg/day (expressed as PMB equivalent) was selected based on previous pharmacokinetic and toxicity studies in rats, where this dose consistently produced measurable nephrotoxicity without lethality. […] The average weight gain of each group was recorded for the experiment. We randomized the treatment order and controlled the timing of measurements, and all researchers involved in the study were blinded to the intervention. The animals were euthanized 24 h after the last treatment with an intraperitoneal lethal dose of sodium pentobarbital (200 mg/kg). Blood samples were collected by cardiac puncture, and the serum was separated by centrifugation (3000× g for 15 min) and stored at −80 °C until assayed. Samples of the kidney, liver, spleen, lung, and heart tissues were carefully collected, weighed, and sectioned for histopathological analysis. Histological observation was performed to assess potential tissue damage and evaluate the extent of toxicity following the treatment.
Excess fat from the kidney, liver, spleen, lung, and heart tissues was removed through dissection and trimming. All samples were preserved in 10% buffered formalin using a fixative volume at least 10 times the tissue volume for three days. Subsequently, the tissues were dehydrated through a graded series of ethanol (70%, 80%, 95%, and 100%) using a tissue processor (LEICA TP 1020, Leica Microsystems GmbH, Wetzlar, Germany), with each concentration step lasting for 60 min. Following this, the tissues were embedded in Paraplast blocks using a tissue embedder (LEICA EG 1160, Leica Microsystems GmbH, Wetzlar, Germany). Thin sections that measured 5 μm in thickness were obtained using an automatic microtome. The slides were stained with Harris’ hematoxylin and eosin (H&E) and examined under an Olympus DP73 microscope (Olympus, Tokyo, Japan) equipped with cellSens software version 6.1.4.2. Histopathological analysis was performed by an investigator who was blinded to the treatment groups.

[3] = PMB serum concentration after a single subcutaneous dose (LC-MS); assay type: in vivo; conditions: rat, single 6 mg/kg s.c., 4 h post-dose, PMB after protein precipitation, mean ± SD, n = 4
Description: (§3) The serum concentrations reported represent the free (unbound) PMB fraction determined after protein precipitation and filtration, which is the pharmacologically active component.
(§4) For the biodistribution study, a sample size of four rats per group was chosen as a preliminary exploratory analysis to determine major organ distribution trends. This sample size was consistent with previous biodistribution studies involving polymyxins and sufficient to identify statistically meaningful differences in renal accumulation [7]. […] PMB concentrations were measured in LC-MS for free (unbound) fraction of serum and tissue homogenates after protein precipitation.
(§5) The PMB was quantified using an LC-MS/ion trap time-of-flight system (Shimadzu, Tokyo, Japan) equipped with a C18 column (2.1 mm id × 150 mm, 2.7 µm particle size; Thermo Fisher Scientific, Scoresby, Australia). […] A quantity of 400 µL of supernatant was added to 600 µL of the mobile phase. A known amount of standard PMB in blank serum was prepared using the same method to produce a calibration curve of PMB and quantification was performed using colistin sulfate (1 µg/mL) as the internal standard. The monitored mass transitions were m/z 602.4 → 101.1 for PMB and m/z 585.5 → 101.1 for colistin. […]

male Sprague-Dawley rats [4] = experiment: Body weight and body weight gain in the 7-day nephrotoxicity study; assay type: in vivo; conditions: rat
Method: After seven days of treatment with 6 mg/kg of the PMB and PMB formulation, the weight progression of the rats in each group was measured and recorded. All 36 rats successfully acclimated and reached the target body weight of 110 g within the 7-day period. No animals were excluded from the study. The results in Figure 1A show the weight changes measured on day 0, day 4, and day 7 of administration.
The animal study was approved by the Animal Ethics Committee of Prince of Songkla University (Project License No. MHESI 68014/675, Ref. AR042/2024). The animals were housed in a controlled environment with a temperature of 22 ± 2 °C, relative humidity of 50 ± 10%, and a 12/12-h light/dark cycle. They were provided with a standard laboratory rodent diet and water ad libitum. The study was conducted on male outbred Sprague-Dawley rats (5–7 weeks old, 130–170 g) that were obtained from the National Laboratory Animal Center, Mahidol University, Nakorn Pathom, Thailand. The rats were fed the standard feed protocol by the Southern Laboratory Animal Facility, Faculty of Sciences, Prince of Songkla University. Rats were allowed to acclimate for 7 days prior to the experiment.
as §1, with “Blood samples were collected by cardiac puncture, and the serum was separated by centrifugation (3000× g for 15 min) and stored at −80 °C until assayed. Samples of the kidney, liver, spleen, lung, and heart tissues were carefully collected, weighed, and sectioned for histopathological analysis. Histological observation was performed to assess potential tissue damage and evaluate the extent of toxicity following the treatment.” left out

male Sprague-Dawley rats [5] = experiment: Serum oxidative stress biomarkers SOD and CAT after 7 days of treatment; assay type: in vivo; conditions: rat serum, after 7 days of 6 mg/kg/day s.c., commercial kit, mean ± SD, n = 5; for Serum catalase (CAT) level: control 22.4 ± 3.79; for Serum superoxide dismutase (SOD) level: normal saline 37.36 ± 3.4
Method: The serum levels of superoxide dismutase (SOD) and Catalase (CAT) in rats were analyzed to evaluate and compare the oxidative stress induced by the treatments. […] No significant reductions were detected in the serum SOD levels of the SDCS (38 ± 3.17 U/mL) and formulation (34.73 ± 5.17 U/mL) groups. […] The serum CAT levels in the treated rats followed a trend similar to that observed for the SOD levels (Figure 2D).
as §1
(§2) The serum levels of SOD and CAT were measured after the 7-day treatment period to investigate the oxidative properties of the treatments. The measurements were carried out using commercial kits according to the manufacturer’s instructions.

[6] = PMB biodistribution in organs 24 h after subcutaneous dose (LC-MS); assay type: in vivo; conditions: rat, 6 mg/kg s.c., kidney homogenate 24 h post-dose, mean ± SD, n = 4
Description: as §3, §4, §5

rat kidney function = experiment: Kidney function: serum BUN and creatinine after 7 days of treatment; assay type: in vivo; conditions: after 7 days of 6 mg/kg/day s.c., autoanalyzer, mean ± SD; for Serum creatinine (Cr): n = 5, normal saline 2.08 ± 1.08; for Serum blood urea nitrogen (BUN): n = 5, normal saline 13.8 ± 1.3
Method: After seven days of treatment, the serum levels of blood urea nitrogen (BUN) and Cr were assessed in the rats to investigate their kidney function. […] The PMB group had slightly elevated Cr levels (2.28 ± 0.31 mg/dL) (Figure 2B).
as §1, §2

| Substance | Urinary recovery ([1]; animal models) [%] | PMB kidney/serum concentration ratio ([1]; another study) [fold] | Kidney histopathology (renal cortex and medulla) [2] | Liver histopathology (central vein and portal triad area) [2] | Lung histopathology [2] | Spleen histopathology [2] | PMB serum concentration at 4 h [3] [µg/mL] | Body weight gain compared with control (male Sprague-Dawley rats [4]; 6 mg/kg/day s.c. for 7 days, n = 9, result in words) | Body weight on day 4 (male Sprague-Dawley rats [4]; 6 mg/kg/day s.c., day 4 of 7, mean ± SD, n = 9, normal saline group 180.0 ± 11.83 g) [g] | Body weight on day 7 (male Sprague-Dawley rats [4]; 6 mg/kg/day s.c., day 7, mean ± SD, n = 9, normal saline group 207.5 ± 11.62 g) [g] | Serum catalase (CAT) level (male Sprague-Dawley rats [5]) [nmol/min/mL] | Serum superoxide dismutase (SOD) level (male Sprague-Dawley rats [5]) [U/mL] | PMB concentration in the kidneys after 24 h [6] [µg/g] | Serum creatinine (Cr) (rat kidney function) [mg/dL] | Serum blood urea nitrogen (BUN) (rat kidney function) [mg/dL] |
| --- | --- | --- | --- | --- | --- | --- | --- | --- | --- | --- | --- | --- | --- | --- | --- |
| Polymyxin B [PMB] | < 5 | 18 | Deformation of the glomeruli and congestion of the renal blood vessels | significant monocyte infiltration accompanied by loss of hepatocyte architecture and the presence of necrotic foci around the blood vessels | endothelial damage that was evidenced by an increased number of small pulmonary venules containing fibrin thrombi | numerous multinucleated giant cells | 2.94 ± 0.23 | significant reduction in body weight gain | 163.89 ± 15.37 | 191.67 ± 15.83 | 9.5 ± 7.91 | 22.87 ± 8.1 | 3.73 ± 0.89 | 2.28 ± 0.31 | 16.56 ± 1.59 |
| Sodium Deoxycholate sulfate [SDCS] | – | – | normal | normal hepatic tissues | normal lung tissue | normal white and red pulp | – | – | – | – | 22.25 ± 6.38 | 38 ± 3.17 | – | 2.06 ± 0.32 | 14.4 ± 2.07 |
